Series [1] deals with T1, talin H1-H4 (Homo sapiens, UniProt Q9Y490). As to the kind of experiment: Native-PAGE gel shift. It counts as binding. How it is done:
Talin H1-H4 and IpaA peptides/proteins were incubated in binding buffer for 1 hour at 4° C. After incubation, the protein/peptides were mixed in a 2× Native loading buffer (62.5 mM Tris pH 6.8, Glycerol 25%) and separated by Tris-Glycine Native-PAGE electrophoresis. Gels were stained using standard colloidal Coomassie stain.
Talin H1-H4 and IpaA peptides/proteins at different molar ratios were incubated in binding buffer (25 mM Tris pH 7.4, 100 mM NaCl and 1 mM β-Mercaptoethanol) for 1 hour at 4° C. After incubation, the protein/peptides were mixed in a 2× Native loading buffer (62.5 mM Tris pH 6.8, Glycerol 25%) and separated by Tris-Glycine Native-PAGE electrophoresis. The Native PAGE electrophoresis gels were stained using standard colloidal Coomassie stain.

Series [2] addresses T1, talin H1-H4. Briefly: Isothermal titration calorimetry. The class given is binding. The following applies: for N (stoichiometry): ITC non-linear fit; for N (stoichiometry) / ΔG free enthalpy / ΔH enthalpy / −TΔS entropic contribution: 25° C. How it is done: Vinculin, IpaA proteins and peptides were extensively dialyzed in binding buffer (25 mM Tris pH 7.4, 100 mM NaCl and 1 mM β-Mercaptoethanol). The final concentration of all proteins/peptides was measured using a BCA test (Thermo Scientific). Talin-IpaA binding was measured by microcalorimetry using an ITC200 calorimeter (MicroCal) at 25° C. 200 μL of 20-100 μM of talin H1-H4 protein was added to the cell and binding in the presence of different concentrations of IpaA VBS1, VBS2 or VBS3 peptides was measured. In other experiments, 200 μL of a 16 μM equimolar mix of A483:HVD1 was incubated for one hour at room temperature prior to addition to the cell. Binding to talin H1-H4 (100 μM) was measured. Typically, 20-40 injections of 2 μL of ligand were made with intervals of 320 seconds between each addition, with a reference power of 12 μcal/sec. Data were analyzed using the MicroCal software provided by manufacturer.

Series [3] relates to HeLa cells. Briefly: Immunofluorescence of V5-tagged IpaA derivatives and talin. The following applies: V5 epitope and talin staining. It counts as cell-based. An excerpt:
FIG. 8 is a set of photographs showing the interaction between IpaA VBS3 and talin (H1-H4). A, IpaA constructs used in this study. The VBSs are depicted as boxes in IpaA full length (IpaA-FL), with the residue number corresponding to the first residue of the corresponding VBS. The first and last IpaA residues are annotated for the IpaA truncated derivatives. V5: V5 epitope. B, HeLa cells were transfected with IpaA derivatives, fixed and processed for immunofluorescence staining of the V5 epitope and talin. Representative fluorescence images are shown, with a larger magnification of the inset boxed in the left panels. Scale bar=5 μm. C, Native PAGE analysis of IpaA VBSs and talin H1-H4 interaction. 1. Purified talin H1-H4 was incubated with the indicated IpaA VBS peptides and analyzed using 6-18% gradient native PAGE. The talin H1-H4: IpaA VBS molar ratio is indicated, with 1 corresponding to a final concentration of 25 μM. The migration of talin H1-H4 and of the talin H1-H4:IpaA VBS3 complex are indicated.

Series [4] in a line: Size exclusion chromatography, hydrodynamic radius. It counts as physicochemical. The procedure:
The purified proteins HVD1, A483, A524 and Talin H1-H4 were used at an equimolar concentration of 20 μM and incubated at 4° C. for one hour in binding buffer. The protein mixtures (200 μL) were injected in a FPLC chromatography system (FPLC Pharmacia) at 16° C. in a Superdex 75 HR 10/30 column (GE Healthcare) previously equilibrated with 10 volumes of binding buffer. The SEC system was calibrated with a Low Molecular Weight Gel Filtration Kit (ref. 17-0442-01, GE Healthcare) and the hydrodynamic radius (Angstroms) of the reference proteins (BSA, OVA, ChyA and RibA) correlated with the elution volume (Ve) using an Euler exponential equation: Hydrodynamic radius (Ang)=210.46 e^−0.189 Ve (mL), with a correlation squared coefficient of R^2=0.9973. Fractions corresponding to elution volume 8-10 mLs were recovered, and analyzed by SDS-PAGE using 15% polyacrylamide gels.

Series [5] has as its system melanocytes. Briefly: Time lapse cell migration. It counts as cell-based. As to conditions: 6 movies per sample, preliminary.

No end group written: not given here.

T1 sequence (Q9Y490 482-636): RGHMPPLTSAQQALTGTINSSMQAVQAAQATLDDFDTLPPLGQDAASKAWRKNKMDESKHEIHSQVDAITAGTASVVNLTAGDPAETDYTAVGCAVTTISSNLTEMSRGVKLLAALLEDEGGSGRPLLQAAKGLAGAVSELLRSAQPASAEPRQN

Take `CC[C@H](C)[C@H](N)C(=O)N[C@@H](Cc1ccc(O)cc1)C(=O)N[C@@H](CCCCN)C(=O)N[C@@H](C)C(=O)N[C@@H](C)C(=O)N[C@@H](CCCCN)C(=O)N[C@@H](CC(=O)O)C(=O)N[C@H](C(=O)N[C@H](C(=O)N[C@H](C(=O)N[C@@H](CO)C(=O)N[C@@H](CC(C)C)C(=O)N[C@@H](CO)C(=O)N[C@@H](CCCCN)C(=O)N[C@H](C(=O)N[C@@H](CC(C)C)C(=O)N[C@@H](CCCCN)C(=O)N[C@@H](CC(N)=O)C(=O)N[C@H](C(=O)N[C@@H](CC(N)=O)C(=O)N[C@@H](CCCCN)C(=O)N[C@@H](CC(=O)O)C(=O)O)[C@@H](C)CC)C(C)C)[C@@H](C)O)[C@@H](C)O)C(C)C` [IpaA VBS1]: in series [1], the “formation of a complex with talin H1-H4” value is given as “did not induce the formation”. Moreover, the “N (stoichiometry)” value in series [2] is listed as 1.22. For the same molecule, in series [2] (ITC), the ΔG free enthalpy is -6.575 kcal/mol, the ΔH enthalpy is -4.104 kcal/mol and the “−TΔS entropic contribution” value is -2.471 kcal/mol.
For `CC[C@H](C)[C@H](NC(=O)[C@H](CC(C)C)NC(=O)[C@H](CO)NC(=O)[C@@H](NC(=O)[C@H](CC(C)C)NC(=O)[C@H](CC(N)=O)NC(=O)[C@H](CO)NC(=O)[C@H](CC(C)C)NC(=O)[C@H](CO)NC(=O)[C@H](CC(N)=O)NC(=O)[C@@H](NC(=O)[C@@H](NC(=O)[C@H](CCCCN)NC(=O)[C@H](CCCCN)NC(=O)[C@H](CO)NC(=O)[C@H](C)NC(=O)[C@H](CCC(=O)O)NC(=O)[C@H](Cc1ccccc1)NC(=O)[C@@H](NC(=O)[C@@H](NC(=O)[C@H](CCC(=O)O)NC(=O)[C@H](CCCNC(=N)N)NC(=O)[C@@H](N)[C@@H](C)O)[C@@H](C)O)[C@@H](C)CC)C(C)C)[C@@H](C)O)[C@@H](C)CC)C(=O)NCC(=O)N[C@H](C(=O)O)[C@@H](C)O` [IpaA VBS3], the “concentration at which the complex with talin H1-H4 / migration shift could be detected” value in series [1] was 25 µM. For the same molecule, the “N (stoichiometry)” value in series [2] was determined as 0.893. For the same molecule, in series [2] (ITC), the ΔG free enthalpy is -9.219 kcal/mol, the ΔH enthalpy is -6.393 kcal/mol and the “−TΔS entropic contribution” value was -2.826 kcal/mol. For the same molecule, the ΔG free enthalpy in series [2] (ITC, listed as IpaA VBS3/TBS) is -9.07 ± 0.103 kcal/mol.
Regarding “IYEKAKEVSSALSKVLSKI (IpaA VBS2; listed as Shigella flexneri) [purified synthetic IpaA VBS peptide]”, the “formation of a complex with talin H1-H4” value in series [1] is listed as “did not induce the formation”. Further, the “interaction with talin H1-H4 by ITC” value in series [2] (ITC) is listed as “did not show any interaction”.
Take “YTKKELIECARRVSEKVSHVLAALQA [talin H46, reference compound]”: in series [1], the “formation of a complex with talin H1-H4” value is “formed a complex”. The Kd in series [2] is 60 nM. Also, in series [2] (ITC), the ΔH enthalpy was -16.97 kcal/mol and the “−TΔS entropic contribution” value is on record as “+7200 cal/mol”.

B1: IpaA 7-422: V5-tagged IpaA truncated derivative in which the IpaA VBS3 was deleted (protein)
chain: TQAPTFLYKATSPSSTEYSELKSKISDIHSSQTSLKTPASVSEKENFATSFNQKCLDFLFSSSGKEDVLRSIYSNSMNAYAKSEILEFSNVLYSLVHQNGLNFENEKGLQKIVAQYSELIIKDKLSQDSAFGPWSAKNKKLHQLRQNIEHRLALLAQQHTSGEALSLGQKLLNTEVSSFIKNNILAELKLSNETVSSLKLDDLVDAQAKLAFDSLRNQRKNTIDSKGFGIGKLSRDLNTVAVFPELLRKVLNDILEDIKDSHPIQDGLPTPPEDMPDGGPTPGANEKTSQPVIHYHINNDNRTYDNRVFDNRVYDNSYHENPENDAQSPTSQTNDLLSRNGNSLLNPQRALVQKVTSVLPHSISDTVQTFANNSALEKVFNHTPDNSDGIGSDLLTTSSQERSANNSLSRGHRPLN
modifications: left off: small tags and cut ends
notes: V5-tagged IpaA truncated derivative in which the IpaA VBS3 was deleted
With B1, the “localization relative to talin” value in series [3] is on record as “did not co-localize with talin”.

B2: HVD1: vinculin derivative containing only amino acid residues 1 to 257 of HV (D1 domain) (protein, listed as Homo sapiens)
chain: MPVFHTRTIESILEPVAQQISHLVIMHEEGEVDGKAIPDLTAPVAAVQAAVSNLVRVGKETVQTTEDQILKRDMPPAFIKVENACTKLVQAAQMLQSDPYSVPARDYLIDGSRGILSGTSDLLLTFDEAEVRKIIRVCKGILEYLTVAEVVETMEDLVTYTKNLGPGMTKMAKMIDERQQELTHQEHRVMLVNSMNTVKELLPVLISAMKIFVTTKNSKNQGIEEALKNRNFTVEKMSAEINEIIRVLQLTSWDEDA
modifications: Vinculin domain D1 (HVD1)
For the molecule B2, in series [4], the “Radiusg (hydrodynamic radius of a globular protein with the same MW)” value worked out at 24.36 Ang and the “Radiusm/Radiusg (RH/RG ratio)” value was 1.16. Further, the “Radiusm (estimated hydrodynamic radius)” value in series [4] (SEC Superdex 75, 20 μM equimolar) is 28.25 Ang.

B3: IpaA 7-522: V5-tagged IpaA truncated derivative (protein)
chain: TQAPTFLYKATSPSSTEYSELKSKISDIHSSQTSLKTPASVSEKENFATSFNQKCLDFLFSSSGKEDVLRSIYSNSMNAYAKSEILEFSNVLYSLVHQNGLNFENEKGLQKIVAQYSELIIKDKLSQDSAFGPWSAKNKKLHQLRQNIEHRLALLAQQHTSGEALSLGQKLLNTEVSSFIKNNILAELKLSNETVSSLKLDDLVDAQAKLAFDSLRNQRKNTIDSKGFGIGKLSRDLNTVAVFPELLRKVLNDILEDIKDSHPIQDGLPTPPEDMPDGGPTPGANEKTSQPVIHYHINNDNRTYDNRVFDNRVYDNSYHENPENDAQSPTSQTNDLLSRNGNSLLNPQRALVQKVTSVLPHSISDTVQTFANNSALEKVFNHTPDNSDGIGSDLLTTSSQERSANNSLSRGHRPLNIQNSSTTPPLHPEGVTSSNDNSSDTTKSSASLSHRVASQINKFNSNTDSKVLQTDFLSRNGDTYLTRETIFEASKKVTNSLSNLISLIGTKSGTQERELQ
modifications: left off: small tags and cut ends
notes: V5-tagged IpaA truncated derivative
Turning to B3, the “localization relative to talin” value in series [3] was “localized to focal adhesions and other talin-containing structures”.

B4: GFP-A524 (protein)
chain: KSKDITKSTTEHRINNKLKVTDANIRNYVTETNADTIDKNHAIYEKAKEVSSALSKVLSKIDDTSAELLTDDISDLKNNNDITAENNNIYKAAKDVTTSLSKVLKNINKD
modifications: left off: large carriers
As for B4, the “effect on cell migration / motility” value in series [5] is “did not drastically alter the motility”.
